Results: paper PMC9697446 (International Journal of Molecular Sciences, 2022)
Where “and” joins values, the source holds several entries; their conditions need not be identical. Identical values can stand only once. Like-named read-outs stand apart in the source and are kept apart here.

Experiments:
[1] = tested on: isolated rat liver mitochondria; experiment: Mitochondrial membrane potential and calcium-induced depolarization (safranine O); type: biochemical; settings: for Effect on calcium-induced mitochondrial depolarization at 30 μM: 12.5 µM CaCl2; for ΔΨm, CI (g/m) / ΔΨm, CII (s/r): depolarization after 10-min incubation with 30 µM compound, mean ± SD; for ΔΨm, CI (g/m): complex I substrates (glutamate, malate); for ΔΨm, CII (s/r): complex II substrate (succinate) in the presence of rotenone
Description: The primary screening of new compounds to determine their effect on the mitochondrial membrane potential formed due to respiratory chain (RC) activity after additions of RC substrates was performed on isolated rat liver mitochondria. It can be used to estimate the probability of the potential toxicity of these compounds. Furthermore, the influence of the compounds on the calcium-dependent depolarization of isolated rat liver mitochondria in this assay made it possible to evaluate the effect on the mitochondrial permeability transition.
Rat liver mitochondria were isolated by conventional differential centrifugation from the livers of adult Wistar strain rats that fasted overnight, pH 7.6 [83, 84]. The mitochondrial protein concentration was determined using a biuret procedure with bovine serum albumin as the standard.
Safranine O (10 µM) was used as a membrane potential probe. Fluorescence intensity at 580 nm (excitation at 520 nm) was measured with a Wallac Victor 3 1420 Multilabel Counter (Perkin Elmer, Turku, Finland). The mitochondrial protein concentration was 0.2 mg/mL. The medium for measurements contained 75 mM sucrose, 225 mM mannitol, 10 mM K-HEPES (pH 7.4), 0.02 mM EGTA, and 1 mM KH2PO4. After a 5-min incubation, 5 mM glutamate/malate or 5 mM succinate in the presence of 0.5 µM rotenone were added to produce the mitochondrial potential. Then, the compounds (30 µM) or the same volume of the vehicle (DMSO) were injected into the mitochondrial suspension. After 15–20 min, 12.5 µM CaCl2 was added to each sample to induce the depolarization of mitochondria, and after 5 min, 0.5 µM CCCP was added for maximum depolarization of the mitochondria. The level of depolarization (ΔΨm) was calculated using the fluorescence value after 10-min incubation with 30 µM of compounds (or vehicle) normalized between the fluorescence measurements after substrate and CCCP addition, where fluorescence intensity at 580 nm was 100% after substrate addition and was 0% after CCCP addition.

[2] = Oxygen radical absorbance capacity assay (ORAC-FL); settings: Trolox equivalent, Trolox = 1; means ± SEM (n = 3)
Description: The method is based on the measurement of the fluorescence intensity characterizing the degree of destruction of the fluorescence probe under the action of peroxyl radicals.
The peroxyl radical scavenging capacity of the test compounds was characterized in terms of the Trolox equivalent (TE), which is equal to the ratio of the Trolox concentration to the concentration of a test compound when they show equal fluorescence intensities in the assay. The peroxyl radical scavenging capacity of Trolox was set as 1 [67, 68].
2,2´-Azobis(amidinopropane) dihydrochloride (AAPH), (±)-6-hydroxy-2,5,7,8-tetramethylchroman-2-carboxylic acid (Trolox), and fluorescein (FL) were purchased from Sigma-Aldrich. The reaction was carried out at 37 °C in 75 mM K,Na phosphate buffer (pH 7.4), and the final reaction mixture was 200 µL. The test compounds and the Trolox standard were dissolved in DMSO to 10 mM and further diluted in a 75 mM K,Na phosphate buffer (pH 7.4). The final concentrations were 0.1–1 µM for the test compounds and 1–6 µM for the Trolox. The blank was composed of 20 µL of a 75 mM K,Na phosphate buffer (pH 7.4) containing 20% (v/v) DMSO, 120 µL of FL and 60 µL of AAPH, and it was added in each assay. The antioxidant (20 µL) and FL (120 µL, final concentration: 70 nM) solutions were placed in a black 96-well microplate and were preincubated for 15 min at 37 °C. A solution of AAPH (60 µL, final concentration: 12 mM) was then added rapidly using a multichannel pipette. The microplate was immediately placed in the reader, and the fluorescence was recorded every minute for 100 min. The microplate was automatically shaken prior to each reading. The Trolox standard curve was also obtained in each assay. All reactions were carried out in triplicate, and at least three different assays were performed for each sample.
The antioxidant curves (fluorescence vs. time) were first normalized to the curve of the blank (without the antioxidant) corresponding to the same assay, and the area under the fluorescence decay curve (AUC) was calculated. The net AUC corresponding to a sample was calculated by subtracting the AUC corresponding to the blank. Regression equations were calculated by plotting the net AUC against the antioxidant concentration. The ORAC Tolox equivalent value (TE) was obtained by dividing the slope of the latter curve by the slope of the Trolox curve obtained in the same assay. The ability of Trolox to scavenge the peroxyl radical was equal to 1 [64, 65]. […] The data are expressed as means ± SEM.

EeAChE PAS = molecular target: T1, EeAChE PAS (Electrophorus electricus, UniProt O42275); experiment: biochemical; type: binding; settings: for inhibition at 3 µM: read-out: PI Displacement, 3 µM; for inhibition at 20 µM: read-out: PI Displacement, 20 µM
T1 construct: purchased Sigma-Aldrich type VI-S
Description: PIand donepezil were purchased from Sigma-Aldrich. […] As the source of the enzyme, electric eel (Elecrophorus electricus) AChE (EeAChE, type VI-S, lyophilized powder, Sigma-Aldrich, Saint Louis, MO, USA) was used. The applicability of this enzyme was shown earlier
To determine the percentage of displacement of PI from the EeAChE PAS, EeAChE (with a final concentration of 7 μM) was incubated with the test compound at a concentration of 3 and 20 μM in 1 mM Tris-HCl buffer pH 8.0, 25 °C for 15 min. Next, PIsolution (with a final concentration of 8 μM) was added, the samples were incubated for 15 min, and the fluorescence spectrum (530 nm (exc.) and 600 nm (emiss.)) was taken. Donepezil and decamethonium were used as reference compounds. The blank contained PI of the same concentration in 1 mM Tris-HCl buffer pH 8.0. The measurements were carried out in triplicate on a FLUOStar Optima microplate reader).
The percentage of displacement of PIfrom the peripheral anionic site of AChE was calculated using the following formula:% Displacement = 100 − (IFAChE+Propidium+inhibitor/IFAChE+Propidium) × 100,(1) where IFAChE+Propidium is the fluorescence intensity of the propidium associated with AChE in the absence of the test compound (taken as 100%) and IFAChE+Propidium+inhibitor is the fluorescence intensity of the propidium associated with AChE in the presence of the test compound.

[3] = ABTS radical cation scavenging assay; settings: 1 h incubation, means ± SEM (n = 3); for IC50: 50% reduction of ABTS radical; for ABTS Scavenging Activity, TEAC Value: Trolox equivalent antioxidant capacity
Description: The ABTS assay is based on the direct binding of a model ABTS radical cation (2,2′-azino-bis-(3-ethylbenzothiazoline-6-sulfonate), ABTS^•+) by antioxidants. The measurements were performed as previously described in detail.
The radical scavenging activity was expressed as TEAC values (Trolox equivalent antioxidant capacity) and determined as the ratio between the slopes obtained from the linear correlation of the ABTS radical absorbance with the concentrations of the test compounds and Trolox.
The radical scavenging activity of the compounds was assessed using an ABTS radical decolorization assay. The procedure followed the reported protocol with minor modifications. ABTS (2,2ʹ-azino-bis-(3-ethylbenzothiazoline-6-sulfonic acid) diammonium salt) was purchased from TCI (Tokyo, Japan), while potassium persulfate (di-potassium peroxodisulfate), Trolox (6-hydroxy-2,5,7,8-tetramethylchroman-2-carboxylic acid), catechol, and DMSO were received from Sigma-Aldrich Chemical Co. (St. Louis, MO, USA). The ethanol was HPLC grade. Aqueous solutions were prepared using deionized water.
Trolox was used as the standard reference compound. Catechol was used as the positive control. All test and reference compounds were dissolved in DMSO. The final concentration of DMSO in the reaction mixture was 4% (v/v).
The solution of ABTS radical cation (ABTS^•+) was produced by mixing a 7 mM ABTS stock solution with a 2.45 mM aqueous solution of potassium persulfate in equal quantities and allowing them to react for 12–16 h at room temperature in the dark. At the time of activity determination, the ABTS^•+ solution was diluted with ethanol to adjust it to an absorbance value of about 0.80 ± 0.05 at 734 nm. A fresh working solution of ABTS^•+ was prepared for each assay.
The radical scavenging capacity of the compounds was analyzed by mixing 10 μL of test compound with 240 μL of ABTS^•+ working solution. The reduction in absorbance was measured spectrophotometrically at 734 nm using an xMark microplate UV/VIS spectrophotometer (Bio-Rad, Hercules, CA, USA). The reaction was monitored for an hour at 10 min intervals. Data were given for 1 h of incubation of compounds with ABTS^•+. EtOH blanks were run in each assay. The results were obtained from three replicates of each sample and three independent experiments.
The antioxidant capacity as a Trolox equivalent (TEAC values) was determined as the ratio between the slopes obtained from the linear correlation of concentrations of test compounds and Trolox with absorbance of ABTS radical.

[4] = compound 3 µM, EeAChE 7 µM, PI 8 µM, means ± SEM (n = 3)
[5] = compound 20 µM, EeAChE 7 µM, PI 8 µM, means ± SEM (n = 3)

T1 sequence (O42275 24-633): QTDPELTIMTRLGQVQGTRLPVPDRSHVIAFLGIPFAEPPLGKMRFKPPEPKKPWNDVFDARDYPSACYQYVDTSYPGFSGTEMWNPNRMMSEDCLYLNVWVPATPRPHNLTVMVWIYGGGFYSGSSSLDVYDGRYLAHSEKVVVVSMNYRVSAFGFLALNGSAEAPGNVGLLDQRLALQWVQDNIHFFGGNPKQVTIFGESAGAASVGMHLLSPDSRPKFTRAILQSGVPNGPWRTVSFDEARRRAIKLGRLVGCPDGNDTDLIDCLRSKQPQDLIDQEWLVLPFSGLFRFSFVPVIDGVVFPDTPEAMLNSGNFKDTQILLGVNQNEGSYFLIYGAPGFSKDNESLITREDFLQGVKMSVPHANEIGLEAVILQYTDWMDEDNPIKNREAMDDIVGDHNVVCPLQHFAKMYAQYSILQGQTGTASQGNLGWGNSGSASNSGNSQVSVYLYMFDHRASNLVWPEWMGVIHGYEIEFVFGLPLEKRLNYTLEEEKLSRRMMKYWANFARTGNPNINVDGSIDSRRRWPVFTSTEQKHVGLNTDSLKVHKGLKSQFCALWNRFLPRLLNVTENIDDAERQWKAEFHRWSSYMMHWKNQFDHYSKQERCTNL

Row | Compound | Effect on calcium-induced mitochondrial depolarization at 30 μM [1] | ΔΨm, CI (g/m) [1] [%] | ΔΨm, CII (s/r) [1] [%] | ORAC, TE Value [2] | inhibition at 3 µM (EeAChE PAS; [4]) [%] | inhibition at 20 µM (EeAChE PAS; [5]) [%] | IC50 [3] [µM] | ABTS Scavenging Activity, TEAC Value [3] | inhibition at 3 µM (EeAChE PAS) [%] | inhibition at 20 µM (EeAChE PAS) [%] | PI Displacement, 3 µM (EeAChE PAS; [4]) [%] | PI Displacement, 20 µM (EeAChE PAS; [5]) [%]
1 | CN(C)c1ccc2c(c1)Sc1cc(N(C)C)ccc1N2C(=O)CCn1c2c(c3cc(OC(F)(F)F)ccc31)CCCC2 [Compound 4h] | considerably decrease | 15 ± 2 | 25 ± 1 | 5.8 ± 0.5 | 19.1 ± 1.1 | 33.8 ± 0.4 | 17.8 ± 1.4 | 1.10 ± 0.10 | – | – | – | –
2 | Cc1ccc2c(c1)c1c(n2CCC(=O)N2c3ccc(N(C)C)cc3Sc3cc(N(C)C)ccc32)CCCCCC1 [Compound 4n] | – | 23 ± 6 | 65 ± 1 | 10.9 ± 0.6 | 16.7 ± 1.2 | 28.3 ± 1.2 | 14.9 ± 1.2 | 1.20 ± 0.14 | – | – | – | –
3 | Cc1ccc2c(c1)c1c(n2CCC(=O)N2c3ccc(N(C)C)cc3Sc3cc(N(C)C)ccc32)CCCC1 [Compound 4c] | – | 29 ± 1 | 50 ± 3 | 5.5 ± 0.4 | 14.9 ± 1.1 | 31.8 ± 0.9 | 17.6 ± 1.8 | 1.13 ± 0.09 | – | – | – | –
4 | CN(C)c1ccc2nc3ccc(=[N+](C)C)cc-3sc2c1 [MB, Methylene blue, reference compound] | completely suppress | 14 ± 7 | 40 ± 9 | not detectable | – | – | – | not detectable | 20.9 ± 1.9 | 40.8 ± 3.7 | – | –
5 | CC1CCc2c(c3cc(OC(F)(F)F)ccc3n2CCC(=O)N2c3ccc(N(C)C)cc3Sc3cc(N(C)C)ccc32)C1 (stereo not drawn) [Compound 4i] | completely suppress | 6 ± 3 | 18 ± 2 | 5.1 ± 0.4 | 20.4 ± 1.8 | 32.5 ± 0.5 | 17.2 ± 1.2 | 1.14 ± 0.11 | – | – | – | –
6 | CN(C)c1ccc2c(c1)Sc1cc(N(C)C)ccc1N2C(=O)CCn1c2c(c3ccccc31)CCCCCC2 [Compound 4m] | – | 23 ± 9 | 57 ± 6 | 15.7 ± 1.5 | 17.3 ± 1.2 | 37.4 ± 0.8 | 16.7 ± 1.6 | 1.11 ± 0.07 | – | – | – | –
7 | CN(C)c1ccc2c(c1)Sc1cc(N(C)C)ccc1N2 [MBH2, reference compound] | – | 0 | 18.2 ± 1.1 | not detectable | – | – | – | not detectable | – | – | 17.7 ± 1.8 | 36.9 ± 3.3
8 | COc1ccc2c(c1)c1c(n2CCC(=O)N2c3ccc(N(C)C)cc3Sc3cc(N(C)C)ccc32)CCC(C)C1 (stereo not drawn) [Compound 4e] | – | 33 ± 1 | 50 ± 1 | 13.3 ± 1.3 | 14.8 ± 0.7 | 23 ± 1.3 | 13.7 ± 0.9 | 1.46 and 1.46 ± 0.11 | – | – | – | –
9 | CN(C)c1ccc2c(c1)Sc1cc(N(C)C)ccc1N2C(=O)CCn1c2c(c3ccccc31)CCCC2 [Compound 4b] | – | 20 ± 1 | 42 ± 2 | 8.6 ± 0.1 | 12.6 ± 0.7 | 27.9 ± 1.1 | 24.3 ± 1.5 | 0.90 ± 0.04 | – | – | – | –
10 | CN(C)c1ccc2c(c1)Sc1cc(N(C)C)ccc1N2C(=O)CCn1c2c(c3cc(F)ccc31)CCCC2 [Compound 4f] | – | 27 ± 1 | 47 ± 1 | 5.6 ± 0.4 | 14.4 ± 0.8 | 31.9 ± 1.4 | 27.2 ± 1.6 | 0.85 ± 0.04 | – | – | – | –
11 | CN(C)c1ccc2c(c1)Sc1cc(N(C)C)ccc1N2C(=O)CCn1c2c(c3ccccc31)CCC2 [Compound 4a] | – | 8 ± 1 | 58 ± 1 | 6.8±0.4 | 12 ± 0.5 | 20.9 ± 0.8 | 21 ± 1.4 | 0.99 ± 0.08 | – | – | – | –
12 | CN(C)c1ccc2c(c1)Sc1cc(N(C)C)ccc1N2C(=O)CCn1c2c(c3ccccc31)CCCCC2 [Compound 4j] | – | 21 ± 9 | 66 ± 1 | 12.4 ± 0.2 | 10.3 ± 0.9 | 23.8 ± 1.1 | 16.3 ± 1.4 | 1.15 ± 0.09 | – | – | – | –
13 | COc1ccc2c(c1)c1c(n2CCC(=O)N2c3ccc(N(C)C)cc3Sc3cc(N(C)C)ccc32)CCCC1 [Compound 4d] | – | 30 ± 4 | 53 ± 1 | 4.8 ± 0.3 | 13.4 ± 0.9 | 28 ± 1.5 | 39.3 ± 1.5 | 0.75 ± 0.05 | – | – | – | –
14 | Cc1ccc2c(c1)c1c(n2CCC(=O)N2c3ccc(N(C)C)cc3Sc3cc(N(C)C)ccc32)CCCCC1 [Compound 4k] | – | 6 ± 3 | 62 ± 1 | 13.4 ± 1.3 | 12.1 ± 0.8 | 15.8 ± 0.7 | 15.4 ± 1.3 | 1.20 ± 0.13 | – | – | – | –
